Details of series [1]: method as in PMID 33124429. Particulars: mouse; cited from earlier work.
Series [2] has as its system Wnt/β-catenin signaling in the presence of Notum. Particulars: read-out: EC50, restoration of Wnt/β-catenin signaling, TCF/LEF reporter.
Series [3] shares this test system. On the set-up: method as in PMID 35536179. As to conditions: read-out: EC50, cell-based reporter (TCF/LEF) assay; cited from earlier work.
Details of series [4]: method as in PMID 35536179. As to conditions: cited from earlier work.
Details of series [5]: method as in PMID 35536179. As to conditions: mouse liver microsomes; cited from earlier work. (In general: Liver microsomes are vesicles of endoplasmic reticulum, rich in cytochrome P450 enzymes.)
On the set-up of series [6]: method as in PMID 35536179. As to conditions: human liver microsomes; cited from earlier work.
The next series concerns MDCK-MDR1. Set-up: method as in PMID 35536179. Particulars: cited from earlier work.
Series [7] deals with T1, Notum (Homo sapiens, UniProt Q6P988, C330S).
T1 sequence (Q6P988 81-451 C330S): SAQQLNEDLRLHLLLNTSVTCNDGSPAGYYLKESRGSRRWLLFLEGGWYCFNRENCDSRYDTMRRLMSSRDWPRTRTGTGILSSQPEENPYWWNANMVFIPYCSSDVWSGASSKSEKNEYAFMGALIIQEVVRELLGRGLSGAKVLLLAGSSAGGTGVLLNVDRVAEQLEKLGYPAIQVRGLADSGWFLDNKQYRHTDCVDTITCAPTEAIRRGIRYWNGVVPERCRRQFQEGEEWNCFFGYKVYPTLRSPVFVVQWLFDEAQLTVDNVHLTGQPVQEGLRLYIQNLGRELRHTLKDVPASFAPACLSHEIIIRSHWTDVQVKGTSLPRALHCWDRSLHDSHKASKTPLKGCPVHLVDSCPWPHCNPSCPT
The series can be described thus: biochemical.

Series [8] concerns the target T1, Notum. Particulars: for LE (ligand efficiency): LE = 1.4(−pIC50)/HAC; for LLE (lipophilic ligand efficiency): LLE = pIC50 – clogP; for LE / LLE: supplementary CSV.
[9] abbreviates: Notum IC50, OPTS substrate, 10-point curves 30 nM to 1 mM, mean ± s.d. of N = 2–4 unless stated, Table 1 and figures.
Where [10] appears, read: pIC50, Table 1, Notum OPTS assay.

Values after ≈ are worked out from the molar mass of the structure shown. Where two headings read alike, the source gives them in different places.

As to `Oc1nnc(-c2ccc(Cl)c(C(F)(F)F)c2)o1` [7a], in series [1], the brain penetration entry is “only partial” and the plasma exposure entry is “good”.

`OCc1cn(-c2ccc(Cl)c(C(F)(F)F)c2)nn1` [7b, (1-(4-Chloro-3-(trifluoromethyl)phenyl)-1H-1,2,3-triazol-4-yl)methanol]: the EC50 in series [2] turned out to be 1.6 ± 1.2 µM.

In the case of `FC(F)(F)c1c(Cl)ccc(-n2ccnn2)c1Cl` [7d], the EC50 in series [3] was 0.11 ± 0.1 µM.

Regarding `OCc1cn(-c2ccc(Cl)c(Cl)c2)nn1` [compound 7], the aqueous solubility in [4] was 100 mg/mL (≈ 410 mM). Moreover, the MLM Cli in series [5] is 88 µL/min/mg protein. In addition, the HLM Cli in series [6] was 12 µL/min/mg protein. For the same compound, in the series with MDCK-MDR1 (MDCK-MDR1, AB), the “Papp AB” value is on record as 57 × 10^–6 cm/s. Moreover, the “Papp BA” value with MDCK-MDR1 (MDCK-MDR1, BA) is reported as 59 × 10^–6 cm/s. Further, at Notum [7] (setting [9]), the IC50 is less than 10 µM.

Take `c1ccc(CNCc2ccc3c(c2)OCO3)nc1` [compound 28, 1-(Benzo[d][1,3]dioxol-5-yl)-N-(pyridine-2-ylmethyl)methanamine]: at Notum [8], the “LE (ligand efficiency)” value turned out to be 0.33, the “LLE (lipophilic ligand efficiency)” value was 3.2, the LE turned out to be 0.33 and the LLE stood at 3.2. The same compound came in with an IC50 on Notum [7] (setting [9]) of 54 ± 6.2 µM.

As for `CCc1ccc(OCC(=O)N2CCCCC2)cc1` [compound 31], on Notum [8], the “LE (ligand efficiency)” value was found to be 0.30, the “LLE (lipophilic ligand efficiency)” value is reported as 0.7, the LE came to 0.3 and the LLE amounted to 0.7. Besides, half-maximal inhibition against Notum [7] (setting [9]) (IC50) required 120 ± 30 µM.

Regarding `c1cc2c(cc1CNC[C@H]1CCCO1)OCO2` [compound 32], on Notum [8], the “LE (ligand efficiency)” value is recorded as 0.25, the “LLE (lipophilic ligand efficiency)” value is reported as 0.9, the LE came out at 0.25 and the LLE is recorded as 0.9. Besides, the half-inhibitory concentration (IC50) on Notum [7] (IC50 (µM), supplementary CSV, Notum IC50 values for 1–58) came out at 1000 µM. Moreover, the IC50 against Notum [7] (setting [9]) is approximately 1000 µM.

`Nc1ccccc1Nc1ccccn1` [compound 33]: on Notum [8], the “LE (ligand efficiency)” value was determined as 0.33, the “LLE (lipophilic ligand efficiency)” value was found to be 1.6, the LE came to 0.33 and the LLE was 1.6. Moreover, the IC50 against Notum [7] (setting [9]) came out at 500 ± 64 µM.

For the compound `NNC(=O)c1ccccc1OCc1ccccc1` [compound 34], on Notum [8], the “LE (ligand efficiency)” value is listed as 0.27, the “LLE (lipophilic ligand efficiency)” value is 1.4, the LE was 0.27 and the LLE is recorded as 1.4. In addition, the midpoint of inhibition on Notum [7] (setting [9]), the IC50, lay at 330 ± 11 µM.

In the case of `COCC(=O)Nc1nc(-c2ccccc2)cs1` [compound 35], on Notum [8], the “LE (ligand efficiency)” value was 0.32, the “LLE (lipophilic ligand efficiency)” value is 1.6, the LE was 0.32 and the LLE amounted to 1.6. The same compound came in with an IC50 on Notum [7] (setting [9]) of 120 ± 24 µM.

Take `Cl.Oc1c(CN2CCOCC2)ccc2ccccc12` [compound 37]: on Notum [8], the “LE (ligand efficiency)” value was 0.33, the “LLE (lipophilic ligand efficiency)” value was determined as 1.9, the LE was 0.33 and the LLE was determined as 1.9. On Notum [7] (setting [9]), this compound showed an IC50 of 58 ± 19 µM.

Take `CC1CCN(Cc2c[nH]c3ccccc23)CC1` [compound 38]: on Notum [8], the “LE (ligand efficiency)” value is on record as 0.32, the “LLE (lipophilic ligand efficiency)” value amounted to 0.2, the LE was found to be 0.32 and the LLE amounted to 0.2. At Notum [7] (setting [9]), this compound returned an IC50 of 120 ± 49 µM.

Turning to `COCC(=O)NCc1ccccc1` [compound 41], at Notum [8], the “LE (ligand efficiency)” value is 0.45, the “LLE (lipophilic ligand efficiency)” value was 3.2, the LE stood at 0.45 and the LLE worked out at 3.2. On Notum [7] (setting [9]), this compound returned a half-maximal inhibitory concentration (IC50) of 68 ± 5.4 µM.

On to `COc1ccc(CNC(=O)[C@@H]2CCCO2)cc1` [compound 43], for which, at Notum [8], the “LE (ligand efficiency)” value was determined as 0.34, the “LLE (lipophilic ligand efficiency)” value came to 2.7, the LE was determined as 0.34 and the LLE was found to be 2.7. For the same compound, on Notum [7] (setting [9]), the IC50 was determined as 87 ± 47 µM.

Consider `COC(=O)COc1ccc(C#N)cc1` [compound 44], for which, on Notum [8], the “LE (ligand efficiency)” value was 0.34, the “LLE (lipophilic ligand efficiency)” value worked out at 2.0, the LE came out at 0.34 and the LLE was found to be 2. The compound further registered an IC50 on Notum [7] (setting [9]) of 410 ± 63 µM.

`O=C(NCCc1ccc(O)cc1)c1ccccn1` [compound 45]: at Notum [8], the “LE (ligand efficiency)” value was determined as 0.24, the “LLE (lipophilic ligand efficiency)” value is 1.2, the LE is recorded as 0.24 and the LLE is 1.2. The compound also came in with an IC50 against Notum [7] (setting [9]) of 720 ± 18 µM.

In the case of `COc1cc(-c2ccccc2)nc(N)n1` [compound 46], on Notum [8], the “LE (ligand efficiency)” value is given as 0.32, the “LLE (lipophilic ligand efficiency)” value turned out to be 0.7, the LE is listed as 0.32 and the LLE is given as 0.7. The same compound yielded an IC50 against Notum [7] (setting [9]) of 380 ± 130 µM.

Regarding `Cn1nc(O)cc1Nc1ccccc1` [compound 49], at Notum [8], the “LE (ligand efficiency)” value is listed as 0.33, the “LLE (lipophilic ligand efficiency)” value is on record as 1.8, the LE is recorded as 0.33 and the LLE amounted to 1.8. Besides, on Notum [7] (setting [9]), inhibition was half-maximal at 550 ± 93 µM (IC50). In addition, at Notum [7] (setting [10]), inhibition was half-maximal at 631 µM (IC50).

For `Cc1ccc(C)c(OC(=O)c2ccncc2)c1` [compound 50], on Notum [8], the “LE (ligand efficiency)” value was 0.37, the “LLE (lipophilic ligand efficiency)” value came to 1.1, the LE is on record as 0.37 and the LLE stood at 1.1. Besides, the IC50 on Notum [7] (setting [9]) worked out at 36 ± 2.7 µM.

With `CCc1noc(C)c1C(=O)Nc1cc(C)on1` [compound 53], at Notum [8], the “LE (ligand efficiency)” value was 0.25, the “LLE (lipophilic ligand efficiency)” value stood at 2.7, the LE is given as 0.25 and the LLE worked out at 2.7. The same compound displayed an IC50 on Notum [7] (setting [9]) of 980 ± 17 µM.

Regarding `Cc1ccccc1CNc1nnnn1C` [compound 54], on Notum [8], the “LE (ligand efficiency)” value stood at 0.38, the “LLE (lipophilic ligand efficiency)” value worked out at 2.0, the LE turned out to be 0.38 and the LLE is 2. Also, at Notum [7] (setting [9]), the IC50 stood at 78 ± 8.2 µM.

On to `C[C@@H](Oc1ccc(-c2ccccc2)cc1)C(=O)O` [compound 55], for which, on Notum [8], the “LE (ligand efficiency)” value was determined as 0.29, the “LLE (lipophilic ligand efficiency)” value amounted to 0.2, the LE was 0.29 and the LLE stood at 0.2. The same compound returned an IC50 on Notum [7] (setting [9]) of 200 ± 76 µM.

As for `CCn1c(NC(C)=O)nc2ccccc21` [compound 57], on Notum [8], the “LE (ligand efficiency)” value was 0.33, the “LLE (lipophilic ligand efficiency)” value stood at 1.5, the LE amounted to 0.33 and the LLE was 1.5. The compound also registered an IC50 against Notum [7] (setting [9]) of 260 ± 51 µM. The compound further showed an IC50 against Notum [7] (setting [10]) of 316 µM.

As to `CC(=O)Nc1ccc2nsnc2c1` [compound 58], at Notum [8], the “LE (ligand efficiency)” value is 0.38, the “LLE (lipophilic ligand efficiency)” value was determined as 1.4, the LE stood at 0.38 and the LLE came out at 1.4. Moreover, the IC50 against Notum [7] (setting [9]) was found to be 390 ± 53 µM.

As usually defined, the aqueous solubility is the dissolved amount per volume that the medium holds. A word on the IC50: it is the concentration that gives 50% inhibition.

The values are drawn from article PMC9264368, “Structural Analysis and Development of Notum Fragment Screening Hits” (ACS Chemical Neuroscience, 2022).
